We go through two molecules from US9598405B2, “Thiazole-substituted aminopyridines as spleen tyrosine kinase inhibitors” (Merck Sharp & Dohme Corp., priority 2012, dated 2017).

Molecules are shown by their SMILES.

For data set [1], the target named is recombinant human GST-SYK (Homo sapiens (Human), UniProt P43405). In words: Homogeneous Time-Resolved Fluorescence (HTRF) assay for the recombinant human Syk enzyme. The data set is classed as biochemical. As for the experimental part:
Homogeneous Time-Resolved Fluorescence (HTRF) Assay for the Recombinant Human Syk Enzyme
A recombinant GST-hSYK fusion protein was used to measure potency of compounds to inhibit human Syk activity. […] Final volume of the reaction was 10 μL. […] To quench the reaction and detect the phosphorylated product, 2 nM of a Europium-anti-phosphotyrosine antibody (Perkin Elmer #AD0161) and 70 nM SA-APC (Perkin-Elmer #CR130-100) were added together in 15 mM Tris pH 7.5, 40 mM EDTA, 0.01% tween 20. Final volume of the quenching solution was […]. The resulting HTRF signal was measured after 30 minutes on an EnVision (Perkin-Elmer) reader using a time-resolved fluorescence protocol.
(In general: Time-resolved FRET reads energy transfer from a long-lived donor to a nearby acceptor.)

For data set [2] the following is noted: phase II clinical trial, allergic rhinitis; cited from earlier work.
Data set [3] relates to PGD2. The settings on record: dosed intranasally, phase I/II study, allergic rhinitis; cited from earlier work.

The IC50 is the point on the concentration scale where inhibition reaches its midpoint. For `COCc1cc(Nc2cc(C(F)(F)F)ccn2)nc(-c2cnc([C@]3(O)CC[C@@H](C(=O)OC)C(C)(C)C3)s2)c1` (single isomer, unassigned) [Example 4.8, methyl (1R,4S or 1S,4R)-4-hydroxy-4-{5-[4-(methoxymethyl)-6-{[4-(trifluoromethyl)pyridin-2-yl]amino}pyridin-2-yl]-1,3-thiazol-2-yl}-2,2-dimethylcyclohexanecarboxylate], in data set [1], the concentration for half-maximal inhibition (IC50) amounted to 1170 nM.

Turning to `Oc1cccc(Nc2ncc(F)c(Nc3cccc(O)c3)n2)c1` [Example R112], the efficacy versus placebo entry in data set [2] is listed as “lack of efficacy”. Besides, in data set [3], the “change in PGD2” value is reported as “statistically significant decrease” and the clinical safety entry is recorded as “safe across a range of indicators”.
